This note sets out measurements from paper PMC6833013 (Molecules, 2019).

The subject of one data set is Fa2N4. The data set is described as follows: cells. It is filed as cell-based. As to conditions: Homo sapiens, Fa2N-4, 24 h, read-out: IC50 Fa2N4.
A further data set concerns HT29. The experiment in a line: cells. It is filed as cell-based. As to conditions: Homo sapiens, HT-29, 24 h, read-out: IC50 HT29.
Another data set has as its system Bacillus subtilis MB964. It is filed as cell-based.
The next data set concerns A549. The experiment in a line: cells. Type of data set: cell-based. To be noted: Homo sapiens, A549, 24 h, read-out: IC50 A549.
The test system of another data set is HepG2. The data set is described as follows: cells. As to conditions: Homo sapiens, HepG2, 24 h, read-out: IC50 HepG2. It is filed as cell-based.
The next data set concerns RCC4-VHL. The experiment in a line: cells. It is filed as cell-based. As to conditions: Homo sapiens, 24 h, read-out: IC50 RCC4-VHL.
For a further data set, the system named is MCF-7. The experiment in a line: cells. Type of data set: cell-based. As to conditions: Homo sapiens, MCF7, 24 h, read-out: IC50 MCF-7.
The test system of the next data set is RCC4-VA. The experiment in a line: cells. It is filed as cell-based. To be noted: Homo sapiens, 24 h, read-out: IC50 RCC4-VA.

For orientation: IC50 means the concentration that gives 50% inhibition. `CC(=O)OC1CC2OC3C=C(C)CCC3(C)C1(C)C2(O)CO` [Compound 3, (4R,12S)-12-Hydroxy-12-(hydroxymethyl)trichothec-9-en-4-yl acetate]: the “cytotoxic activity in all the cell lines tested” value with human cell lines is given as “lost all their activity”. In addition, the IC50 with Fa2N4, with HT29, in the data set on A549, in the data set on HepG2, with RCC4-VHL and in the data set on MCF-7 was greater than 20 mg/L throughout. The 50% inhibitory concentration (IC50) in the data set on RCC4-VA was greater than 20 mg/L. In addition, the “B. subtilis MB964 inhibition halo” value in the data set on Bacillus subtilis MB964 is reported as “no halo”.

For `CCC(=O)OC1CC2OC3C=C(C)CCC3(C)C1(C)C2(O)CO` [Compound 16, (4R,12S)-12-Hydroxy-12-hydroxymethyltrichothec-9-en-4-yl propionate], the “cytotoxic activity in all the cell lines tested” value in the data set on human cell lines is “lost all their activity”. Moreover, the IC50 in the data set with Fa2N4, in the data set on HT29, in the data set with A549, with HepG2, with RCC4-VHL and with MCF-7 was greater than 20 mg/L throughout. For the same molecule, the IC50 in the data set on RCC4-VA is greater than 20 mg/L. The “B. subtilis MB964 inhibition halo” value with Bacillus subtilis MB964 is “no halo”.
